Measured values: patent US20240398785A1, “SMALL MOLECULE DRUGS FOR THE INDUCTION OF TRAINED IMMUNITY” (THE UNIVERSITY OF CHICAGO, priority 2023, published 2024)

Legend:
Format in all cases: cell-based, mouse
BMDMs [1] = assay: A1155463 in-vitro training assay in BMDMs; conditions: 24 hours after challenge, vs PBS-trained
Description: (§1) FIGS. 5A-5F: Testing A1155463 as an inducer of trained immunity (TI) in vitro. FIG. 5A is a schematic diagram for in-vitro TI assay in bone marrow-derived macrophages (BMDMs). FIG. 5B is a graph showing interleukin-6 (IL-6) levels (expressed in picograms per milliliter (pg/ml) 24 hours (h) post PAM3-CSK4 (Pam3) challenge in an in-vitro TI assay in BMDMs trained with either phosphate buffered saline (PBS) (black) or A1155463 (pink); n=15. FIG. 5C is a graph showing tumor necrosis factor alpha (TNF-α) levels (pg/ml) 24 h post Pam3 challenge in an in-vitro TI assay in BMDMs trained with either PBS (black) or A1155463 (pink); n=10. FIG. 5D is a graph showing IL-6 levels (pg/ml) 24 h post-stimulation with PBS (black) or A1155463 (pink); n=3. FIG. 5E is a graph showing the fold change in TNF-α following Pam3 challenge in BMDMs trained with A1155463 pre-treated with PBS, MTA (histone methyl transferase inhibitor), EGCG (histone acetyltransferase inhibitor) or 2-DG (glycolysis inhibitor); n=15, significance compared with PBS control of each inhibitor. FIG. 5F is a graph of IL-6 levels (pg/ml) 24 h post Pam3 challenge in an in-vitro TI assay in BMDMs trained with either PBS (black) or A1155463 (pink) pretreated with varying concentrations of 2-DG; n=5.
A1155463 is a commercially available inhibitor of the B-cell lymphoma-extra large (Bcl-xL) protein. […]

BMDMs [2] = assay: A1155463 training with inhibitor pre-treatment (MTA, EGCG, 2-DG)
Description: as §1
After ruling out apoptosis and innate inflammation, an additional study was performed to attempt to determine the mechanism of action of A1155463-induced training in BMDMs. Training induces epigenetic and metabolic rewiring of macrophages which can be probed using small molecule inhibitors of various pathways.^16 Epigenetic changes are associated with increased histone methylation and acetylation, promoting transcription and translation of proinflammatory cytokines in response to pathogenic stimuli. Metabolic changes alter cellular metabolism, mostly favoring glycolysis, to meet the higher energy requirements of a trained cell. […]

BMDMs [3] = assay: Annexin-V staining for apoptotic cells; conditions: 100 nM, 24 hours
Description: FIGS. 9A-9E: Representative plots for Annexin V gating strategy for apoptotic cells: BMDMs were stimulated with nothing (unstained control, FIG. 9A), PBS (negative control, FIG. 9B), Camptothecin (positive control, FIG. 9C) or A1155463 (FIG. 9D); n=3, (except camptothecin n=1). Results from plots 9B-9D depicted in FIG. 9E.
Since Bcl-xL is a known anti-apoptotic protein, a study was performed to see if inhibition with 100 nM A1155463 induced apoptosis in BMDMs. To test this, Annexin-V staining was used to gate for apoptotic cells 24 hours following stimulation with either PBS or A1155463.

Compound: CN(C)CC#Cc1ccc(OCCCc2sc(N3CCc4cccc(C(=O)Nc5nc6ccccc6s5)c4C3)nc2C(=O)O)c(F)c1 [A1155463, 2-(8-(benzo[d]thiazol-2-ylcarbamoyl)-3,4-dihydroisoquinolin-2(1H)-yl)-5-(3-(4-(3-(dimethyl-amino)prop-1-yn-1-yl)-2-fluorophenoxy)propyl)thiozole-4-carboxylic acid]
- increase in IL-6 following Pam3 challenge (BMDMs [1]): approximately 1.2 fold
- increase in TNF-α following Pam3 challenge (BMDMs [1]): approximately 1.2 fold
- training after epigenetic small molecule inhibitors (MTA, EGCG) (BMDMs [2]; 30 min pre-treatment): no significant difference
- Pam3 induced IL-6 levels with 2-DG (BMDMs [2]; different concentrations of 2-DG): significant decrease
- reduction in the TNF-α level following Pam3 challenge by 2DG pre-treatment (BMDMs [2]; glycolysis inhibitor 2DG): 50%
- percentage of apoptotic cells (BMDMs [3]): No significant difference
